Test results as given in paper PMC9550643 (iScience, 2022).
Where two headings read alike, the source gives them in different places.

Tests used:
[1] = system: estrogen receptor; conditions: ref Kolle et al., 2010; cited from earlier work
[2] = target: T1, estrogen receptor-α (ERα) (Homo sapiens, UniProt P03372); format: cell-based; conditions: iER-GFP cells, 2 h; mixtures as dilution series, chemicals 1 nM to 100 μM
T1 sequence (P03372 1-595): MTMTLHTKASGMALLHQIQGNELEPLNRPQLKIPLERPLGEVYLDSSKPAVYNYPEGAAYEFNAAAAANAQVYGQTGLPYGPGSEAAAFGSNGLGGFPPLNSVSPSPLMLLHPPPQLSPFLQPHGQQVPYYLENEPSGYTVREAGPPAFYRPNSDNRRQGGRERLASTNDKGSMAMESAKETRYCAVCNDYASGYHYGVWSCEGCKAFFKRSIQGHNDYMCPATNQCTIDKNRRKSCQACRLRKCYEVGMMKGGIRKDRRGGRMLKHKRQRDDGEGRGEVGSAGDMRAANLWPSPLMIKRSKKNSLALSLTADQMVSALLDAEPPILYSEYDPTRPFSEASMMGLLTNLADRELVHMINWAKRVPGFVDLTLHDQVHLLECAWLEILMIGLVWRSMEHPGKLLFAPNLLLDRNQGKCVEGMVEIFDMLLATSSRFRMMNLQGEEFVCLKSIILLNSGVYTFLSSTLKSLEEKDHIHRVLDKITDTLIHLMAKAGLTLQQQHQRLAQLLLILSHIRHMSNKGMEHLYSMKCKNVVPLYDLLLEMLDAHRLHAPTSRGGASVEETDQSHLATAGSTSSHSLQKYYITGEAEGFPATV

[3] = system: SRC-1, SRC-3, and phosphorylated RNA Pol II (serine 5); assay: Immunofluorescence of co-activator and RNA Pol II recruitment to the PRL-array; format: cell-based, Human; conditions: GFP-ER and iER-GFP cells, 10 nM, 2 h
[4] = system: dsRed2skl mRNA; format: cell-based, Human; conditions: 2 h

SMILES: C[C@]12C[C@H](O)[C@H]3[C@@H](CCC4=CC(=O)CC[C@@]43C)[C@@H]1CC[C@@H]2C(=O)CO [Corticosterone]
- activity in yeast-based estrogenic assays [1]: (anti-)estrogenic activity

SMILES: OC(c1ccc(Cl)cc1)(c1ccc(Cl)cc1)C(Cl)(Cl)Cl [Dicofol]
- chromatin binding activity (AUC) as share of the activity observed with E2 [2]: at least 10%

SMILES: C[C@]12CC[C@@H]3c4ccc(O)cc4CC[C@H]3[C@@H]1CC[C@@H]2O [E2, 17β-estradiol]
- recruitment of SRC-3 to the PRL-array [3]: strong recruitment
- dsRed2skl FISH signal, increase above untreated ([4]; GFP-ER cells): 3.2 fold
- maximal induced dsRed2skl FISH signal ([4]; GFP-ER cells): 39,685 ± 2338 IU
- dsRed2skl FISH signal, increase above untreated ([4]; iER-GFP cells): 11.4 fold
- maximal induced dsRed2skl FISH signal ([4]; iER-GFP cells): 234,008 ± 1329 IU
- dsRed2skl FISH signal, increase above untreated ([4]; iGFP-ER cells): 5.0 fold
- maximal induced dsRed2skl FISH signal ([4]; iGFP-ER cells): 84,564 ± 628 IU

SMILES: COc1ccc(C(c2ccc(OC)cc2)C(Cl)(Cl)Cl)cc1 [Methoxychlor]
- chromatin binding activity (AUC) as share of the activity observed with E2 [2]: at least 10%

SMILES: CC(=O)[C@H]1CC[C@H]2[C@@H]3CCC4=CC(=O)CC[C@]4(C)[C@H]3CC[C@]12C [Progesterone]
- activity in yeast-based estrogenic assays [1]: (anti-)estrogenic activity

SMILES: O=S1OCC2C(CO1)C1(Cl)C(Cl)=C(Cl)C2(Cl)C1(Cl)Cl (centres unmarked) [endosulfan]
- chromatin binding activity (AUC) as share of the activity observed with E2 [2]: at least 10%

SMILES: CCOP(=S)(OCC)SCSP(=S)(OCC)OCC [ethion]
- chromatin binding activity (AUC) as share of the activity observed with E2 [2]: at least 10%

SMILES: Clc1ccc(C(c2ccccc2Cl)C(Cl)(Cl)Cl)cc1 (centres unmarked) [o,p'-DDT]
- chromatin binding activity (AUC) as share of the activity observed with E2 [2]: at least 10%
